Measured values from ChEMBL document CHEMBL1909046, “DrugMatrix in vitro pharmacology data”.

Columns and labels:
Cannabinoid receptor 1 = Cannabinoid receptor 1 (Homo sapiens, UniProt P21554); assay type: cell membranes, Chem-1, Membrane; details: chem-1; also: in other assays of this panel Not Active means under 50% inhibition at 10 µM
Cytochrome P450 2E1 = Cytochrome P450 2E1 (Homo sapiens, UniProt P05181); details: bti-tn-5b1-4; also: in other assays of this panel Not Active means under 50% inhibition at 10 µM
Chain of Cytochrome P450 2E1 (P05181 whole entry): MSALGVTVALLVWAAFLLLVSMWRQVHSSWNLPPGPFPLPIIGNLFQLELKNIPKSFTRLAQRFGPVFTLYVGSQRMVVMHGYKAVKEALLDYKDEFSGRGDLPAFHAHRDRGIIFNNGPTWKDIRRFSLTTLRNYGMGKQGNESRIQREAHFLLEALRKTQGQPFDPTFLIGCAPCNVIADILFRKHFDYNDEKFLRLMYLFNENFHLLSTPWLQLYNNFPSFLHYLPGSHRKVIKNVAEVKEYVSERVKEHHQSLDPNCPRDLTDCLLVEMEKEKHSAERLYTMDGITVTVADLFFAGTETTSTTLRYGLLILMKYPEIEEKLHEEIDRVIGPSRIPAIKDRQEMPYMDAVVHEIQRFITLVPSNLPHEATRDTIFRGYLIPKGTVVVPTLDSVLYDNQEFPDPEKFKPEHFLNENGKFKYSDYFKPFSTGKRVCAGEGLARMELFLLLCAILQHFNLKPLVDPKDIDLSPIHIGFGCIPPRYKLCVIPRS

Neutrophil elastase = target: T1, Neutrophil elastase (Homo sapiens, UniProt P08246); assay type: tissue-based;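 also: inhibition of neutrophil elastase enzyme activity, measured with a p-nitroanilide-linked peptide substrate; in other assays of this panel Not Active means under 50% inhibition at 10 µM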
T1 sequence (P08246 whole entry): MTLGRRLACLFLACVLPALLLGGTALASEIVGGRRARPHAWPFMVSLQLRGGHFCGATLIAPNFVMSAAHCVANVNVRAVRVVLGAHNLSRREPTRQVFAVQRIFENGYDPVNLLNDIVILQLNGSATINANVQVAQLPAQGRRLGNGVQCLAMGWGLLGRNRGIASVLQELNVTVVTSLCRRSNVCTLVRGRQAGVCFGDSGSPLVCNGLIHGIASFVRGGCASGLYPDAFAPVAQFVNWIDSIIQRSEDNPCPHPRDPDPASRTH

[1] = DRUGMATRIX: Platelet-Derived Growth Factor (PDGF) radioligand binding (ligand: [125I] PDGF); assay type: cell-based; details: nih3t3; Not Active = under 50% inhibition at 10 µM
Melanocortin receptor 5 = Melanocortin receptor 5 (Homo sapiens, UniProt P33032); assay type: cell membranes, HEK293, Membrane; details: hek293; also: in other assays of this panel Not Active means under 50% inhibition at 10 µM
Chain of Melanocortin receptor 5 (P33032 whole entry): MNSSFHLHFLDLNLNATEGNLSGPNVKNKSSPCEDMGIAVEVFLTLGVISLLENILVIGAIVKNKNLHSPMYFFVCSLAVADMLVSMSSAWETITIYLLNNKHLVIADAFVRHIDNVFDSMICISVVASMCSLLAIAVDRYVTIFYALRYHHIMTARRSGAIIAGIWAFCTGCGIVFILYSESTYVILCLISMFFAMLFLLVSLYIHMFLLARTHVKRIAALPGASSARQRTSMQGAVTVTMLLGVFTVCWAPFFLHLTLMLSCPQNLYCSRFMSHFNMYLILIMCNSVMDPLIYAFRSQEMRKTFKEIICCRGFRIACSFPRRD

[2] = target: Beta-2 adrenergic receptor (Homo sapiens, UniProt P07550); experiment: DRUGMATRIX: Adrenergic beta2 radioligand binding (ligand: [3H] CGP-12177); assay type: cell membranes, CHO, Membrane; details: cho; Not Active = under 50% inhibition at 10 µM
[3] = DRUGMATRIX: Nicotinic Acetylcholine radioligand binding (ligand: [125I] Epibatidine); assay type: cell membranes, Membrane; details: imr-32; Not Active = under 50% inhibition at 10 µM
[4] = DRUGMATRIX: Atrial Natriuretic Factor (ANF) radioligand binding (ligand: [125I] ANF (rat)); assay type: cell membranes, Cavia porcellus, Dunkin-Hartley, Adrenal gland, Membrane; details: Not Active = under 50% inhibition at 10 µM

Chain of Cannabinoid receptor 1 (P21554 whole entry): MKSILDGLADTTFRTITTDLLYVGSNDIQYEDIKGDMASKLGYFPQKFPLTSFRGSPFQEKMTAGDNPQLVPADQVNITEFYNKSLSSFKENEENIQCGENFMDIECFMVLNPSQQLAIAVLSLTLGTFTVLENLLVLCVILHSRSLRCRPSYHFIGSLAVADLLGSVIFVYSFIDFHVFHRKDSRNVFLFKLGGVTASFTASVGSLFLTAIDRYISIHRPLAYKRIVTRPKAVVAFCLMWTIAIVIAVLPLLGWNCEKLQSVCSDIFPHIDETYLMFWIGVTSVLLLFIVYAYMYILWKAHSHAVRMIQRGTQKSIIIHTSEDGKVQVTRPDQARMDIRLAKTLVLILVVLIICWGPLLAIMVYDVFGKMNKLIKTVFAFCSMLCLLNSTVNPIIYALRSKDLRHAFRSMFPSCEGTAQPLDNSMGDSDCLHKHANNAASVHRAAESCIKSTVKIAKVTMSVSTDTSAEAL

CC[C@@H](C(=O)[C@@H](C)[C@@H](O)[C@H](C)[C@@H]1O[C@@H]([C@@H](CC)C(=O)O)CC[C@@H]1C)[C@H]1O[C@]2(C=C[C@@H](O)[C@]3(CC[C@@](C)([C@H]4CC[C@](O)(CC)[C@H](C)O4)O3)O2)[C@H](C)C[C@@H]1C [SALINOMYCIN]
Not Active: IC50 (Cannabinoid receptor 1) | IC50 (Cytochrome P450 2E1) | Ki (Cytochrome P450 2E1) | IC50 (Neutrophil elastase) | IC50 [1] | Ki [1] | IC50 (Melanocortin receptor 5) | IC50 [2] | IC50 [3] | Ki [3] | IC50 [4] | Ki [4]

O=C(Oc1ccccc1C(=O)O)c1ccccc1O [SALSALATE]
Not Active: IC50 (Cannabinoid receptor 1) | IC50 (Cytochrome P450 2E1) | Ki (Cytochrome P450 2E1) | IC50 (Neutrophil elastase) | IC50 [1] | Ki [1] | IC50 (Melanocortin receptor 5) | IC50 [2] | IC50 [3] | Ki [3] | IC50 [4] | Ki [4]

O=C(O)c1cn(-c2ccc(F)cc2)c2cc(N3CCNCC3)c(F)cc2c1=O [SARAFLOXACIN]
Not Active: IC50 (Cannabinoid receptor 1) | IC50 (Cytochrome P450 2E1) | Ki (Cytochrome P450 2E1) | IC50 (Neutrophil elastase) | IC50 [1] | Ki [1] | IC50 (Melanocortin receptor 5) | IC50 [2] | IC50 [3] | Ki [3] | IC50 [4] | Ki [4]

O.O.O.O.O.O.[Cl-].[Cl-].[Sr+2] [STRONTIUM CHLORIDE HEXAHYDRATE]
Not Active: IC50 (Cannabinoid receptor 1) | IC50 (Cytochrome P450 2E1) | Ki (Cytochrome P450 2E1) | IC50 (Neutrophil elastase) | IC50 [1] | Ki [1] | IC50 (Melanocortin receptor 5) | IC50 [2] | IC50 [3] | Ki [3] | IC50 [4] | Ki [4]

O=C1C(CC[S+]([O-])c2ccccc2)C(=O)N(c2ccccc2)N1c1ccccc1 (centres undefined) [SULFINPYRAZONE]
Not Active: IC50 (Cannabinoid receptor 1) | IC50 (Cytochrome P450 2E1) | Ki (Cytochrome P450 2E1) | IC50 (Neutrophil elastase) | IC50 [1] | Ki [1] | IC50 (Melanocortin receptor 5) | IC50 [2] | IC50 [3] | Ki [3] | IC50 [4] | Ki [4]

NC(=O)N1C(=O)/C(=C(\O)c2cccs2)c2cc(Cl)ccc21 [TENIDAP]
Not Active: IC50 (Cannabinoid receptor 1) | IC50 (Cytochrome P450 2E1) | Ki (Cytochrome P450 2E1) | IC50 (Neutrophil elastase) | IC50 [1] | Ki [1] | IC50 (Melanocortin receptor 5) | IC50 [2] | IC50 [3] | Ki [3] | IC50 [4] | Ki [4]

COc1cc2nc(N3CCN(C(=O)C4CCCO4)CC3)nc(N)c2cc1OC (centres undefined) [TERAZOSIN]
Not Active: IC50 (Cannabinoid receptor 1) | IC50 (Cytochrome P450 2E1) | Ki (Cytochrome P450 2E1) | IC50 (Neutrophil elastase) | IC50 [1] | Ki [1] | IC50 (Melanocortin receptor 5) | IC50 [2] | IC50 [3] | Ki [3] | IC50 [4] | Ki [4]

CN(C/C=C/C#CC(C)(C)C)Cc1cccc2ccccc12 [TERBINAFINE]
Not Active: IC50 (Cannabinoid receptor 1) | IC50 (Cytochrome P450 2E1) | Ki (Cytochrome P450 2E1) | IC50 (Neutrophil elastase) | IC50 [1] | Ki [1] | IC50 (Melanocortin receptor 5) | IC50 [2] | IC50 [3] | Ki [3] | IC50 [4] | Ki [4]

CCCCNc1ccc(C(=O)OCCN(C)C)cc1 [TETRACAINE]
Not Active: IC50 (Cannabinoid receptor 1) | IC50 (Cytochrome P450 2E1) | Ki (Cytochrome P450 2E1) | IC50 (Neutrophil elastase) | IC50 [1] | Ki [1] | IC50 (Melanocortin receptor 5) | IC50 [2] | IC50 [3] | Ki [3] | IC50 [4] | Ki [4]

Cn1c(=O)c2nc[nH]c2n(C)c1=O.O [THEOPHYLLINE]
Not Active: IC50 (Cannabinoid receptor 1) | IC50 (Cytochrome P450 2E1) | Ki (Cytochrome P450 2E1) | IC50 (Neutrophil elastase) | IC50 [1] | Ki [1] | IC50 (Melanocortin receptor 5) | IC50 [2] | IC50 [3] | Ki [3] | IC50 [4] | Ki [4]

CS(=O)(=O)c1ccc([C@@H](O)[C@@H](CO)NC(=O)C(Cl)Cl)cc1 [THIAMPHENICOL]
Not Active: IC50 (Cannabinoid receptor 1) | IC50 (Cytochrome P450 2E1) | Ki (Cytochrome P450 2E1) | IC50 (Neutrophil elastase) | IC50 [1] | Ki [1] | IC50 (Melanocortin receptor 5) | IC50 [2] | IC50 [3] | Ki [3] | IC50 [4] | Ki [4]

CCN(CC)CCNC(=O)c1cc(S(C)(=O)=O)ccc1OC [TIAPRIDE]
Not Active: IC50 (Cannabinoid receptor 1) | IC50 (Cytochrome P450 2E1) | Ki (Cytochrome P450 2E1) | IC50 (Neutrophil elastase) | IC50 [1] | Ki [1] | IC50 (Melanocortin receptor 5) | IC50 [2] | IC50 [3] | Ki [3] | IC50 [4] | Ki [4]

Clc1ccccc1CN1CCc2sccc2C1 [TICLOPIDINE]
Not Active: IC50 (Cannabinoid receptor 1) | IC50 (Cytochrome P450 2E1) | Ki (Cytochrome P450 2E1) | IC50 (Neutrophil elastase) | IC50 [1] | Ki [1] | IC50 (Melanocortin receptor 5) | IC50 [2] | IC50 [3] | Ki [3] | IC50 [4] | Ki [4]

NC1CCN(c2nc3c(cc2F)c(=O)c(C(=O)O)cn3-c2ccc(F)cc2F)C1 (centres undefined) [TOSUFLOXACIN]
Not Active: IC50 (Cannabinoid receptor 1) | IC50 (Cytochrome P450 2E1) | Ki (Cytochrome P450 2E1) | IC50 (Neutrophil elastase) | IC50 [1] | Ki [1] | IC50 (Melanocortin receptor 5) | IC50 [2] | IC50 [3] | Ki [3] | IC50 [4] | Ki [4]

O=C(Nc1ccc(Br)cc1)c1cc(Br)cc(Br)c1O [TRIBROMSALAN]
Not Active: IC50 (Cannabinoid receptor 1) | IC50 (Cytochrome P450 2E1) | Ki (Cytochrome P450 2E1) | IC50 (Neutrophil elastase) | IC50 [1] | Ki [1] | IC50 (Melanocortin receptor 5) | IC50 [2] | IC50 [3] | Ki [3] | IC50 [4] | Ki [4]

CC(c1cc2ccccc2s1)N(O)C(N)=O (centres undefined) [ZILEUTON]
Not Active: IC50 (Cannabinoid receptor 1) | IC50 (Cytochrome P450 2E1) | Ki (Cytochrome P450 2E1) | IC50 (Neutrophil elastase) | IC50 [1] | Ki [1] | IC50 (Melanocortin receptor 5) | IC50 [2] | IC50 [3] | Ki [3] | IC50 [4] | Ki [4]

MANGANESE CHLORIDE ANHYDROUS
Not Active: IC50 (Cannabinoid receptor 1) | Ki (Cannabinoid receptor 1) | IC50 (Cytochrome P450 2E1) | Ki (Cytochrome P450 2E1) | IC50 (Neutrophil elastase) | Ki (Neutrophil elastase) | IC50 [1] | Ki [1] | IC50 (Melanocortin receptor 5) | Ki (Melanocortin receptor 5) | IC50 [2] | Ki [2] | IC50 [3] | Ki [3] | IC50 [4] | Ki [4]

SODIUM ORTHOVANAD
Not Active: IC50 (Cannabinoid receptor 1) | Ki (Cannabinoid receptor 1) | IC50 (Cytochrome P450 2E1) | Ki (Cytochrome P450 2E1) | IC50 (Neutrophil elastase) | Ki (Neutrophil elastase) | IC50 [1] | Ki [1] | IC50 (Melanocortin receptor 5) | Ki (Melanocortin receptor 5) | IC50 [2] | Ki [2] | IC50 [3] | Ki [3] | IC50 [4] | Ki [4]
